From US20230054926A1, “COMPOSITIONS AND METHODS FOR MICROBIAL TREATMENT OF SKIN DISORDERS” (DUPONT US HOLDING, LLC, priority 2020, published 2023)

Test system: M. globosa
Test: Flow cytometry analysis of M. globosa growth inhibition by cell free fermentate
Assay type: cell-based, Malassezia globosa
Details: Example 6, 200 μl supernatant + 800 μl diluted culture, vs respective media control, amphotericin B 2.5 μg/ml
Description: The growth medium for Malassezia species was a modified Leeming & Notman (mLN) media that contained 10 g/L bacteriological peptone, 2 g/L yeast extract, 8 g/L desiccated ox bile, 10 ml/L glycerol, 0.5 g/L glycerol monostearate, 5 ml/L Tween-60 and 20 ml/L palm oil.
Lipid emulsion by the presence of lipids and surfactants in the mLN media as well as cell clumping phenotype of Malassezia spp, make it difficult to monitor cell growth by optical density measurement or colony counting after spreading a culture aliquot on plates, To circumvent this issue, flow cytometry with cell staining dyes was used to quantitatively measure cell growth in lipid emulsion media. […]
At different time points, 50 μl aliquot from each culture was subjected to mild sonication with amplitude of 5 and 1 sec on/off cycle for 30 sec using Qsonica 0700 (Qsonica, Newtown, Conn.). […] The samples were analyzed by flow cytometry using a Novocyte Quanteon (Asea). SytoBC, a cell permeable DNA/RNA intercalating dye was excited by the 488 laser and detected using a 530/30 bandwidth filter. Concanavalin A, a mannose binding lectin labeled with alexaFluor 640, was excited with the 637 nm laser and detected using a 660/20 bandwidth filter. […] Malassezia cell counts were determined by gating on high sytoBC, high ConA events and recording the event/ul values for each sample. […]

Structure (SMILES): C[C@@H]1[C@H](O)[C@@H](C)/C=C/C=C/C=C/C=C/C=C/C=C/C=C/[C@H](O[C@@H]2O[C@H](C)[C@@H](O)[C@H](N)[C@@H]2O)C[C@@H]2O[C@](O)(C[C@@H](O)C[C@@H](O)[C@H](O)CC[C@@H](O)C[C@@H](O)CC(=O)O[C@H]1C)C[C@H](O)[C@H]2C(=O)O [Amphotericin B, amphotericin B]
- % M. globosa growth inhibition (Day 1): 4%
- % M. globosa growth inhibition (Day 3): 88%
